Data taken from the supplement of paper PMC10307832.

Legend:
Assay in all cases: relative viability (nuclei count vs DMSO), 5 days (fraction); higher = more cells survive
Doramapimod + Foretinib = compound: Cc1ccc(-n2nc(C(C)(C)C)cc2NC(=O)Nc2ccc(OCCN3CCOCC3)c3ccccc23)cc1 [Doramapimod] + COc1cc2c(Oc3ccc(NC(=O)C4(C(=O)Nc5ccc(F)cc5)CC4)cc3F)ccnc2cc1OCCCN1CCOCC1 [Foretinib] (partner 0.25 µM)
How it was run: (§1)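 Cells from lung cancer lines were seeded into 1536-well plates and, one day later, dosed by pin tool. Treatments were either a single drug or a fixed dose of an anchor drug with five library-drug doses (not always all listed) in √10 steps. After 5 days, nuclei were stained in a one-step fixation (final 0.05% Triton X-100, 1% formaldehyde, 1 ug/ml Hoechst) and counted on 4× images, and relative viability is the treated-to-vehicle nuclei ratio, as the median of duplicate plates.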

Doramapimod + Navitoclax = compound: Cc1ccc(-n2nc(C(C)(C)C)cc2NC(=O)Nc2ccc(OCCN3CCOCC3)c3ccccc23)cc1 [Doramapimod] + CC1(C)CCC(c2ccc(Cl)cc2)=C(CN2CCN(c3ccc(C(=O)NS(=O)(=O)c4ccc(N[C@H](CCN5CCOCC5)CSc5ccccc5)c(S(=O)(=O)C(F)(F)F)c4)cc3)CC2)C1 [Navitoclax] (partner 0.5 µM)
How it was run: as §1

IPA-3 + Foretinib = compound: C1=CC=C2C(=C1)C=CC(=C2SSC3=C(C=CC4=CC=CC=C43)O)O [IPA-3] + COc1cc2c(Oc3ccc(NC(=O)C4(C(=O)Nc5ccc(F)cc5)CC4)cc3F)ccnc2cc1OCCCN1CCOCC1 [Foretinib] (partner 0.25 µM)
How it was run: as §1

RAF265 + Lapatinib = compound: Cn1c(Nc2ccc(C(F)(F)F)cc2)nc2cc(Oc3ccnc(-c4ncc(C(F)(F)F)[nH]4)c3)ccc21 [RAF265] + CS(=O)(=O)CCNCc1ccc(-c2ccc3ncnc(Nc4ccc(OCc5cccc(F)c5)c(Cl)c4)c3c2)o1 [Lapatinib] (partner 2 µM)
How it was run: as §1

UMC-11
relative viability (Doramapimod + Foretinib; first compound 0.02 µM): 0.954 | relative viability (Doramapimod + Foretinib; first compound 0.06325 µM): 0.936 | relative viability (Doramapimod + Foretinib; first compound 0.2 µM): 0.932 | relative viability (Doramapimod + Foretinib; first compound 0.6325 µM): 0.988 | relative viability (Doramapimod + Foretinib; first compound 2 µM): 0.982 | relative viability (Doramapimod + Navitoclax; first compound 0.02 µM): 0.304 | relative viability (Doramapimod + Navitoclax; first compound 0.06325 µM): 0.275 | relative viability (Doramapimod + Navitoclax; first compound 0.2 µM): 0.323 | relative viability (Doramapimod + Navitoclax; first compound 0.6325 µM): 0.344 | relative viability (Doramapimod + Navitoclax; first compound 2 µM): 0.271 | relative viability (IPA-3 + Foretinib; first compound 0.2 µM): 1.11 | relative viability (IPA-3 + Foretinib; first compound 0.6325 µM): 0.983 | relative viability (IPA-3 + Foretinib; first compound 2 µM): 1.08 | relative viability (IPA-3 + Foretinib; first compound 6.325 µM): 1 | relative viability (IPA-3 + Foretinib; first compound 20 µM): 1.25 | relative viability (RAF265 + Lapatinib; first compound 0.01 µM): 0.97 | relative viability (RAF265 + Lapatinib; first compound 0.03162 µM): 0.859 | relative viability (RAF265 + Lapatinib; first compound 0.1 µM): 0.968 | relative viability (RAF265 + Lapatinib; first compound 0.3162 µM): 1.07 | relative viability (RAF265 + Lapatinib; first compound 1 µM): 0.776
